Reference: the NIST ThermoML archive (doi:10.1021/acs.jced.8b00132)
Several values for one entry are separate records, joined by “and”; a condition that tells them apart may be missing. Equal entries are not always repeated.

O=C(C(F)(F)C(F)(F)F)C(F)(C(F)(F)F)C(F)(F)F [dodecafluoro-2-methylpentan-3-one]
Conditions	thermal conductivity
387.99 K, 395 kPa, Gas, hot wire	0.0199 W/m/K
388 K, 395 kPa, Gas, hot wire	0.01971 W/m/K
388.06 K, 258 kPa, Gas, hot wire	0.01842 W/m/K
388.07 K, 128 kPa, Gas, hot wire	0.01819 W/m/K and 0.01818 W/m/K
388.08 K, 257 kPa, Gas, hot wire	0.01826 W/m/K
388.1 K, 26 kPa, Gas, hot wire	0.01771 W/m/K and 0.01756 W/m/K
388.1 K, 394 kPa, Gas, hot wire	0.01994 W/m/K
388.1 K, 395 kPa, Gas, hot wire	0.01983 W/m/K
388.18 K, 257 kPa, Gas, hot wire	0.01851 W/m/K
388.19 K, 128 kPa, Gas, hot wire	0.01818 W/m/K
388.19 K, 256 kPa, Gas, hot wire	0.0184 W/m/K
388.2 K, 128 kPa, Gas, hot wire	0.01804 W/m/K
388.2 K, 395 kPa, Gas, hot wire	0.01983 W/m/K
388.22 K, 394 kPa, Gas, hot wire	0.01966 W/m/K
388.23 K, 26 kPa, Gas, hot wire	0.01766 W/m/K and 0.0176 W/m/K
388.3 K, 256 kPa, Gas, hot wire	0.01853 W/m/K
388.31 K, 256 kPa, Gas, hot wire	0.01853 W/m/K
388.31 K, 396 kPa, Gas, hot wire	0.01994 W/m/K
388.32 K, 395 kPa, Gas, hot wire	0.01985 W/m/K
388.33 K, 127 kPa, Gas, hot wire	0.01792 W/m/K
388.33 K, 128 kPa, Gas, hot wire	0.01804 W/m/K
388.36 K, 26 kPa, Gas, hot wire	0.0176 W/m/K
388.37 K, 26 kPa, Gas, hot wire	0.01755 W/m/K
388.43 K, 254 kPa, Gas, hot wire	0.01861 W/m/K
388.43 K, 255 kPa, Gas, hot wire	0.01863 W/m/K
388.43 K, 396 kPa, Gas, hot wire	0.01991 W/m/K
388.45 K, 397 kPa, Gas, hot wire	0.01966 W/m/K
388.47 K, 127 kPa, Gas, hot wire	0.01796 W/m/K
388.48 K, 127 kPa, Gas, hot wire	0.0179 W/m/K
388.49 K, 516 kPa, Gas, transient hot wire	0.01836 W/m/K
388.5 K, 26 kPa, Gas, hot wire	0.01759 W/m/K
388.51 K, 26 kPa, Gas, hot wire	0.01751 W/m/K
388.53 K, 395 kPa, Gas, transient hot wire	0.01832 W/m/K
388.56 K, 254 kPa, Gas, hot wire	0.01874 W/m/K
388.56 K, 255 kPa, Gas, hot wire	0.01872 W/m/K
388.62 K, 127 kPa, Gas, hot wire	0.01791 W/m/K
388.62 K, 257 kPa, Gas, transient hot wire	0.01852 W/m/K
388.65 K, 26 kPa, Gas, hot wire	0.01756 W/m/K
388.66 K, 26 kPa, Gas, hot wire	0.01755 W/m/K
388.67 K, 515 kPa, Gas, transient hot wire	0.01836 W/m/K
388.68 K, 516 kPa, Gas, transient hot wire	0.01848 W/m/K
388.72 K, 394 kPa, Gas, transient hot wire	0.01847 W/m/K
388.73 K, 395 kPa, Gas, transient hot wire	0.01843 W/m/K
388.77 K, 619 kPa, Gas, transient hot wire	0.01829 W/m/K
388.79 K, 619 kPa, Gas, transient hot wire	0.0182 W/m/K
388.81 K, 257 kPa, Gas, transient hot wire	0.01868 W/m/K
388.82 K, 256 kPa, Gas, transient hot wire	0.01825 W/m/K
388.87 K, 514 kPa, Gas, transient hot wire	0.01853 W/m/K
388.93 K, 394 kPa, Gas, transient hot wire	0.01809 W/m/K and 0.01843 W/m/K
388.98 K, 619 kPa, Gas, transient hot wire	0.01836 W/m/K and 0.01835 W/m/K
389.04 K, 256 kPa, Gas, transient hot wire	0.01865 W/m/K
389.05 K, 256 kPa, Gas, transient hot wire	0.01868 W/m/K
389.08 K, 515 kPa, Gas, transient hot wire	0.01859 W/m/K
389.15 K, 395 kPa, Gas, transient hot wire	0.01856 W/m/K
389.19 K, 619 kPa, Gas, transient hot wire	0.01856 W/m/K and 0.01854 W/m/K
389.26 K, 256 kPa, Gas, transient hot wire	0.01862 W/m/K
389.27 K, 255 kPa, Gas, transient hot wire	0.0187 W/m/K
389.29 K, 513 kPa, Gas, transient hot wire	0.01867 W/m/K
389.29 K, 514 kPa, Gas, transient hot wire	0.01867 W/m/K
389.3 K, 67954 kPa, Liquid, transient hot wire	0.07227 W/m/K
389.31 K, 53809 kPa, Liquid, transient hot wire	0.06794 W/m/K
389.31 K, 53833 kPa, Liquid, transient hot wire	0.06806 W/m/K
389.31 K, 67979 kPa, Liquid, transient hot wire	0.0723 W/m/K
389.38 K, 396 kPa, Gas, transient hot wire	0.01859 W/m/K
389.38 K, 397 kPa, Gas, transient hot wire	0.01856 W/m/K
389.42 K, 40396 kPa, Liquid, transient hot wire	0.06362 W/m/K
389.42 K, 40406 kPa, Liquid, transient hot wire	0.06374 W/m/K
389.43 K, 67897 kPa, Liquid, transient hot wire	0.07231 W/m/K
389.43 K, 67923 kPa, Liquid, transient hot wire	0.07209 W/m/K
389.48 K, 29881 kPa, Liquid, transient hot wire	0.05966 W/m/K
389.5 K, 254 kPa, Gas, transient hot wire	0.01874 W/m/K
389.5 K, 53787 kPa, Liquid, transient hot wire	0.06829 W/m/K
389.51 K, 255 kPa, Gas, transient hot wire	0.01838 W/m/K
389.51 K, 53794 kPa, Liquid, transient hot wire	0.06804 W/m/K
389.53 K, 21435 kPa, Liquid, transient hot wire	0.05599 W/m/K
389.54 K, 21442 kPa, Liquid, transient hot wire	0.05607 W/m/K
389.56 K, 40379 kPa, Liquid, transient hot wire	0.06355 W/m/K
389.56 K, 40384 kPa, Liquid, transient hot wire	0.06363 W/m/K
389.57 K, 67853 kPa, Liquid, transient hot wire	0.07219 W/m/K
389.57 K, 67877 kPa, Liquid, transient hot wire	0.0722 W/m/K
389.58 K, 14725 kPa, Liquid, transient hot wire	0.05279 W/m/K
389.58 K, 14726 kPa, Liquid, transient hot wire	0.05278 W/m/K
389.63 K, 29870 kPa, Liquid, transient hot wire	0.05967 W/m/K
389.63 K, 29871 kPa, Liquid, transient hot wire	0.05964 W/m/K
